“Also recorded” adds a separate entry of the source.
Key:
TTR binding to RBP = TTR binding to RBP (Homo sapiens, UniProt P02753); assay: Size exclusion study of TTR binding to RBP (Example 16); details: for binding of ligand-RBP to TTR: 10 μM RBP, 10 μM TTR, room temperature, 1 hour
Method: Apo-RBP at 10 μM was incubated with 50 μM of MPR in PBS at room temperature for 1 hour. 10 μM of TTR was then added to the solution, and the mixture was incubated for another hour at room temperature. 50 μl of the sample mixtures with and without TTR addition were analyzed by BioRad Bio-Sil SEC125 Gel Filtration Column (300×7.8 mm). In control experiments, atROL-RBP and atROL-RBP-TTR mixture were analyzed in the same manner.

Apo-RBP = Apo-RBP (Homo sapiens, UniProt P02753); assay: Fluorescence quenching study with Apo-RBP (Example 15); type: binding
Method: Apo-RBP at 0.5 μM was incubated with 0, 0.25, 0.5, 1 and 2 μM of MPR in PBS at room temperature for 1 hour, respectively. As controls, the same concentration of Apo-RBP was also incubated with 1 μM of HPR or 1 μM of atROL. All mixtures contained 0.2% Ethanol (v/v). The emission spectra were measured between 290 nm to 550 nm with excitation wavelength at 280 nm and 3 nm bandpass.

mice = details: cited from earlier work
abca4 −/− mice = assay: A2E levels after withdrawal of chronic treatment; type: in vivo, mouse
Method: Latent Effects of HPR on Arresting A2E Accumulation —One feature identified during the HPR trials was a therapeutic latency effect following withdrawal of HPR. In these studies, chronic treatment of abca4 −/− mice (10 mg HPR/kg, i.p.) was stopped after 28 days. A2E levels were then measured 12, 28 and 42 days following the final HPR dose. […] This effect was not observed in animals treated with 13-cis retinoic acid, a result that may be due to the capacity of RPE cells to adapt to, and maintain, low steady-state retinoid levels. […] These findings indicate that high steady-state levels of competitive inhibitors such as 13-cis retinoic acid must be maintained for therapeutic efficacy.

abca4 null mutant mice = assay: A2E and A2PE-H2 in eyes after chronic treatment (HPLC); type: in vivo, mouse; details: 13-cis retinoic acid 40 mg/kg, chronic (1 month)
Method: Tissue Extraction. Eye samples were thawed on ice in 1 ml of PBS, pH 7.2 and homogenized by hand using a Duall glass-glass homogenizer. The sample was further homogenized following the addition of 1 ml chlorofomm/methanol (2:1, v/v). The sample was transferred to a boroscilicate tube and lipids were extracted into 4 mls of chloroform. The organic extract was washed with 3 mls PBS, pH 7.2 and the samples were then centrifuged at 3,000×g, 10 min. The choloroform phase was decanted and the aqueous phase was re-extracted with another 4 mls of chloroform. Following centrifugation, the chloroform phases were combined and the samples were taken to dryness under nitrogen gas. Samples residues were resuspended in 100 μl hexane and analyzed by HPLC as described below.
HPLC Analysis. Chromatographic separations were achieved on an Agilent Zorbax Rx-Sil Column (5 μm, 4.6×250 mm) using an Agilent 1100 series liquid chromatograph equipped with fluorescence and diode array detectors. The mobile phase (hexane/2-propanol/ethanol/25 mM KH2PO4, pH 7.0/acetic acid; 485/376/100/50/0.275, v/v) was delivered at 1 ml/min. Sample peak identification was made by comparison to retention time and absorbance spectra of authentic standards. Data are reported as peak fluorescence (L.U.) obtained from the fluorescence detector.
We initiated a one-month study to evaluate the effects of HPR on reduction of A2E and A2E precursors in abca4 null mutant mice. HPR was administered in DMSO (20 mg/kg, ip) to abca4 null mutant mice (BL6/129, aged 2 months) daily for a period of 28 days. Control age/strain matched mice received only the DMSO vehicle. Mice were sampled at 0, 14, and 28 days (n=3 per group), the eyes were enucleated and chloroform-soluble constituents (lipids, retinoids and lipid-retinoid conjugates) were extracted. Mice were sacrificed by cervical dislocation, the eyes were enucleated and individually snap frozen in cryo vials. The sample extracts were then analyzed by HPLC with on-line fluorescence detection. Results from this study show remarkable, early reductions in the A2E precursor, A2PE-H2, see FIG. 4a, and subsequent reductions in A2E, see FIG. 4b. […] A similar study may be undertaken to ascertain effects of HPR treatment on the electroretinographic and morphological phenotypes.
ABCA4 null mutant mice were given the indicated dose of HPR in DMSO or DMSO alone daily for 28 days (n=16 mice per treatment group). At study onset, mice in the 2.5 mg/kg group were 2 months of age, mice in the other treatment groups were 3 months of age. At the indicated times, representative mice were taken from each group (n =4) for analysis of A2E precursor compounds (see FIG. 10, A2PE-H2, panels A, C and E) and A2E (see FIG. 10, panels B, D and F). Eyes were enucleated, hemisected and lipid soluble components were extracted from the posterior pole by chloroform/methanol-water phase partitioning. Sample extracts were analyzed by LC. Identity of the eluted compounds was confirmed by UV-vis absorption spectroscopy and co-elution of sample peaks with authentic standards. Note: limitations in appropriately age and strain-matched mice in the 10 mg/kg group prevented analysis at the 14-day interval.
Extraction and Analysis of Retinoids and A2E. Steady-state levels of retinoids and A2E in eyecups of ABCA4−/− mice were determined following daily administration (28 days) of HPR (FIG. 12). Mice were sacrificed, the eyes enucleated, and the posterior portion of each eye was used for extraction of retinoids or A2E. Methodologies used for extraction of retinoids and A2E from eye tissue and HPLC analysis techniques have been described. See, e.g., Mata N L, Weng J, Travis G H. Biosynthesis of a major lipofuscin fluorophore in mice and humans with ABCR-mediated retinal and macular degeneration. Proc Natl Acad Sci USA. 2000; 97:7154-7159; Weng J, et al.; Cell. 1999;98:13-23; Mata N L, et al.; Invest. Ophthalmol. Visual Sci. 2001; 42:1685-1690. […]

[1] = tested on: wild-type and abca4 −/− mice; details: mouse, in vivo
Source text: Delayed-dark adaptation can be further exacerbated by compounds which reduce the rate of rhodopsin regeneration (e.g., 13-cis retinoic acid). Although compounds such as HPR, which reduce total ocular retinoid levels, may also contribute to delayed-dark adaptation, the effect is less pronounced. This point was illustrated in studies which examined the effects of chronic (1 month) 13-cis retinoic acid or HPR administration on electrophysiology of the retina. […] Following exposure to a light source which bleaches approximately 40% of the visual chromophore, wild-type mice require ˜1 hour to regain dark sensitivity (1.0 value on the y-axis); untreated abca4 −/− mice require ˜3-4 hours. 13-cis retinoic acid treatment prolongs the time required to regain dark sensitivity to several hours. […] This finding is relevant for human patients affected with AMD.
Panels D-F of FIG. 9 are electrophysiological measurements of rod function (panel D), rod and cone function (panel E) and recovery from photobleaching (panel F).

binding to RBP (360 nm absorbance in RBP elution peak) (TTR binding to RBP; 10 μM Apo-RBP, 50 μM MPR) | binding to RBP relative to HPR (Apo-RBP) | quenching of RBP fluorescence (Apo-RBP; 0.5 μM Apo-RBP, 0-2 μM MPR, PBS, room temperature, 1 hour) | degree of quenching compared with other RBP ligands (Apo-RBP; controls 1 μM HPR, 1 μM atROL) | MPR concentration at which quenching saturated (Apo-RBP; for 0.5 μM of RBP) | Structure (SMILES) | binding of ligand-RBP to TTR (TTR binding to RBP) | 11-cis retinyl esters (mice; increased 13-cis retinoic acid) | levels of 11-cis retinal (mice; increased doses of 13-cis retinoic acid) | A2E levels after withdrawal (therapeutic latency effect) (abca4 −/− mice; chronic treatment (HPR 10 mg/kg i.p.) stopped after 28 days, measured 12, 28 and 42 days later) | photoreceptor function and ocular retinoid levels following withdrawal (abca4 −/− mice; mouse, in vivo) | reduction in A2E (abca4 null mutant mice) | time required to regain dark sensitivity [1]
RBP binds to MPR | more weakly | concentration-dependent quenching | smaller than those by atROL and HPR | 1 µM | COc1ccc(NC(=O)\C=C(C)/C=C/C=C(C)\C=C\C2=C(C)CCCC2(C)C)cc1 (stereo in doubt) [MPR, N-(4-methoxyphenyl)retinamide] | did not bind to TTR; also recorded: inhibits the binding of TTR to RBP |  |  |  |  |  | 
 |  |  |  |  | CC1=C(/C=C/C(C)=C/C=C/C(C)=C\C(=O)O)C(C)(C)CCC1 [13-cis retinoic acid] |  | increased dramatically | significantly reduced | not observed | quickly returned to baseline values | ~50% | several hours
 |  |  |  |  | CC1=C(/C=C/C(C)=C/C=C/C(C)=C/CO)C(C)(C)CCC1 [atROL, all-trans retinol] | binds to TTR |  |  |  |  |  | 

From US20070015827A1, “Methods and compositions for treating ophthalmic conditions via serum retinol, serum retinol binding protein (RBP), and/or serum retinol-RBP modulation” (Sytera, Inc., priority 2005, published 2007)
